Laboratory results reported in paper PMC10666288, “Unveiling the Catalytic Mechanism of a Processive Metalloaminopeptidase” (Biochemistry, 2023).

Experiments:
PaPepA [1] = biological target: T1, PaPepA (Pseudomonas aeruginosa, UniProt Q02RY8); assay: Isothermal titration calorimetry of metal binding; set-up: GG stays after cleavage) (N); made in house; host or cells: E. coli BL21(DE3)
Method: Purified PaPepA (100 μM) was buffer exchanged into ITC buffer (50 mM Tris, 140 mM NaCl, pH 7.4) using a Millipore Amicon Ultra-4 centrifugal unit (10 kDa MWCO). The protein was syringe-filtered through a […] and diluted to 50 μM. 3 mL solutions of filtered metal were also prepared. A 400 μM solution of MnCl2 and a 1 mM solution of MgCl2 were prepared by dilution of 1 M metal chloride stocks (Sigma) into ITC buffer.
Buffer, protein, and metal solutions were degassed. Following extensive washes with ITC buffer, the protein was loaded into the cell (volume 1.43 mL) of a VP-ITC (MicroCal) and MnCl2 or MgCl2 solution was loaded into the syringe (total volume 300 μL). Experiments were carried out using the following settings: temperature = 25 °C, duration = 4 s, spacing = 210 s, filter period = 2 s, for 35 injections (one injection of 2 μL followed by 34 injections of 8 μL). Data were analyzed using Origin(Pro), Version 2021 (OriginLab Corporation, Northampton, Massachusetts, USA), and MicroCal PEAQ-ITC analysis software (Malvern).

PaPepA [2] = biological target: T1, PaPepA; assay: Pre-steady-state stopped-flow kinetics with global fit; assay type: biochemical; set-up: GG stays after cleavage) (N); made in house; host or cells: E. coli BL21(DE3)
Method: An Applied Photophysics SX20 stopped-flow spectrofluorimeter was used to perform kinetic measurements under pre-steady-state conditions. The instrument was equipped with a xenon lamp, a 5 μL mixing cell, and a circulating water bath to maintain constant temperature. All reactions were carried out in 100 mM HEPES (pH 8.0) and 50 mM KCl at 25 °C. Enzyme and metal ions were kept in one syringe, while the other substrate (Leu-pNA or Leu-AMC) was kept in the second syringe. The reaction was triggered by rapid mixing of 55 μL from each syringe. Three traces with 10,000 points per trace were collected per experiment.
For absorbance measurements, product formation was monitored by reading the pNA absorbance at 405 nm (5 mm path length). Multiple turnover rates were measured in the presence of saturating concentrations of both metal and Leu-pNA. PaPepA was present at 1 or 10 μM, MnCl2 was present at 3 mM, and Leu-pNA was present at 250 μM. For fluorescence measurements, a path length of 1 mm was used. Reactions were followed by monitoring the appearance of a 7-amino-4-methylcoumarin (AMC) fluorophore following PaPepA-catalyzed breakdown of Leu-AMC. An excitation wavelength of 341 nm was used with a 400 nm cutoff filter for the emission. Slits were 1 nm for excitation and 2 nm for emission.
Experiments under single turnover conditions monitored fluorescence change with a detector voltage of 300 V, 0.1 μM Leu-AMC, 1.5 mM MnCl2, and varying PaPepA (0.5, 1, 2, 4, 8, 16, or 32 μM). Experiments under multiple turnover conditions monitored fluorescence change with a detector voltage of 250 V, 50 μM Leu-AMC, 1.2 μM PaPepA and varying concentrations of MnCl2 (0.2, 0.4, 0.6, 1.2, 2.4, 6, 9, 12, 18, 24, 60, 120, 1200, or 3600 μM).
Calibration curves of known concentrations of AMC were performed at detector voltages of 250 and 300 V. STO and MTO curves were divided by the slope of these calibration curves to convert the change in fluorescence observed to the concentration of AMC produced.
Pre-steady-state data were imported into KinTek Global Explorer and fit to linear or single-exponential equations using the aFit function to obtain standard deviation estimates. A kinetic model with five steps was considered, and rate constants and outputs were fitted according to this model. Initial estimates for rate constants were based on kcat and KM values. The FitSpace Editor was employed to determine confidence intervals for each of the rate constants. More details including model fitted and parameters used are available in the Supporting Information.
Supporting information note 4: Kintek Global Explorer fitting of stopped flow data Both MTO and STO pre-steady-state data were fit according to the mode described in Figure 4A with scaling factors for each fluorescent species (EP and P) to account for differences in AMC fluorescence whilst in complex with PaPepA versus free in solution. Scaling factors were different across STO and MTO experiments as both were carried out using different detector voltages.
The model that best fitted acquired data was as below, where F is metal free enzyme, E1 is PaPepA with one Mn2+ ion, E is PepA with two Mn2+ ions, S is Leu- […]
For fitting, k1 and k-1 ratios were constrained (linked) based KD for Mn2+ binding as measured by ITC (12nM). Initially, k2 and k-2 were allowed to vary without constraints, and values best fitted as well as Fitspace lower and upper boundaries are reported in Table 2. The value for k1 was best fitted as diffusion limited, and therefore was fixed in further fitting cycles. The best fitted value for k-2 was high and unconstrained, and therefore also fixed at 1000 s-1 for further fitting cycles. k3, k-3, k4, and k5 were not constrained. Multiple iterations of fitting were performed, and best fit values recorded. k1, k2, k3, k-3, k4, and k5 were evaluated using FitSpace Explorer to generate confidence intervals for each of these rate constants. […]

[3] = multiple turnover, 50 μM Leu-AMC, […] PaPepA

T1 sequence (Q02RY8 whole entry): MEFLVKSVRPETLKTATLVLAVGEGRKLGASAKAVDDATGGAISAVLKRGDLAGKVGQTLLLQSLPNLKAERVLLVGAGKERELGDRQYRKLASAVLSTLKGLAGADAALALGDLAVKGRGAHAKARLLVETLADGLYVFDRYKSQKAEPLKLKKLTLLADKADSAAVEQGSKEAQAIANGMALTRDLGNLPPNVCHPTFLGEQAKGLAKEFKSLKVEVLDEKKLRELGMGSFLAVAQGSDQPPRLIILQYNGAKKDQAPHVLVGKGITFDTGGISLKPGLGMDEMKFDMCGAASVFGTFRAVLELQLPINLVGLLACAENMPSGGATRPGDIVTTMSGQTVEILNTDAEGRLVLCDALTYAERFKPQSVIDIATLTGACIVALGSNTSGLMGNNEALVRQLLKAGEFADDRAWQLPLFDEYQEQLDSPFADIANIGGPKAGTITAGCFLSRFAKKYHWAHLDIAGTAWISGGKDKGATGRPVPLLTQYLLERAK

[Mn+2] [Mn^2+]
greater affinity for Mn^2+ than Mg^2+ (PaPepA [1]; ITC titration curves): approximately 150 times
Kd (PaPepA [1]; ITC, first line per metal: N 1, [PepA] 35.80 ± 1.5 (Mn) or 32.60 (Mg) µM, [Metal] 400.0 or 1000 µM): 0.0122 ± 0.0015 µM
Kd (PaPepA [1]; ITC, one binding site per monomer, 25 °C, pH 7.4): 0.0136 ± 0.0005 µM
Kd (PaPepA [1]; ITC, one binding site per monomer, 25 °C, pH 7.4, listed as Mn2+): 0.012 µM
Kd (PaPepA [1]; ITC, second line per metal: N 1, [PepA] 47.00 or 48.00 µM, [Metal] 526.5 ± 22.5 (Mn) or 1470 (Mg) µM): 0.0163 ± 1e-05 µM
N (PaPepA [1]; ITC, third line per metal: N fitted): 0.76 ± 0.03
Kd (PaPepA [1]; ITC, third line per metal: N fitted, [PepA] 47.00 or 48.00 µM, [Metal] 400.0 or 1000 µM): 0.0122 ± 0.0001 µM
k1, best-fitted value (PaPepA [2]; F + Mn = E1, global fit of MTO and STO data): 1000 ± 53 μM^–1 s^–1
molar excess of metal over PaPepA at half maximal rate (PaPepA [2]; [3]): 24 fold
molar excess of metal over PaPepA at plateau (PaPepA [2]; [3]): 300 fold
